Results as given in article PMC9213739, “Substrates and Loaded Iron Ions Relative Position Influence the Catalytic Characteristics of the Metalloenzymes Angelica archangelica Flavone Synthase I and Camellia sinensis Flavonol Synthase” (Frontiers in Pharmacology, 2022).

Columns and labels:
CaFLS [1] = target: T1, CaFLS (Camellia sinensis, UniProt A0A3G1RNB1); assay: UPLC-MS product formation, Lineweaver-Burk; type: biochemical; conditions: tamarixetin formation (main product); Tris-HCl pH 7.5, 23 °C
T1 construct: gene FLS; synthetic gene in pET-28a(+) (NcoI/XhoI), expressed in E. coli BL21(DE3); 331 residues; mutants carry fragments of AnFNS I
T1 sequence (A0A3G1RNB1 entry or part of it): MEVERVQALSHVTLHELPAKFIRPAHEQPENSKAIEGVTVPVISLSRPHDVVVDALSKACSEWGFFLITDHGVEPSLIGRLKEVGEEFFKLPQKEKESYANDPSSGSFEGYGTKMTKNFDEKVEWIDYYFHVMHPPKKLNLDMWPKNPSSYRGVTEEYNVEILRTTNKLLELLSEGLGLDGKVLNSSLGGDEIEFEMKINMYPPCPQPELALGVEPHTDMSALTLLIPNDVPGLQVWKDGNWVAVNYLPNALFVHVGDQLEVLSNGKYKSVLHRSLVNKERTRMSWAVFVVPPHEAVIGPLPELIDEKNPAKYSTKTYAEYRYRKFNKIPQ
From the text: (§1) UPLC-MS product formation, Lineweaver-Burk on CaFLS

CaFLS [2] = target: T1, CaFLS; assay: UPLC-MS product formation, Lineweaver-Burk; type: biochemical; conditions: Tris-HCl pH 7.5, 23 °C
From the text: as §1

With COc1ccc([C@@H]2CC(=O)c3c(O)cc(O)cc3O2)cc1O [hesperetin] the Km (CaFLS [1]) was 68.5 µM, the Km (CaFLS [2]; diosmetin formation (main product)) was 65.4 µM and the Km (CaFLS [2]; tamarixetin formation (main product)) was 66.4 µM.
